Consider two compounds from article PMC10972746, “Substrate-induced condensation activates plant TIR domain proteins” (Nature, 2024).

Where a chain is given by its changes, count along the chain named.

Test [1] addresses T1, RBA1–GFP (Arabidopsis thaliana, UniProt F4HT77).
T1 construct: residues 1-191, GFP-tagged, pET-MBP-mGFP vector, E. coli BL21(DE3)
T1 sequence (F4HT77 1-191): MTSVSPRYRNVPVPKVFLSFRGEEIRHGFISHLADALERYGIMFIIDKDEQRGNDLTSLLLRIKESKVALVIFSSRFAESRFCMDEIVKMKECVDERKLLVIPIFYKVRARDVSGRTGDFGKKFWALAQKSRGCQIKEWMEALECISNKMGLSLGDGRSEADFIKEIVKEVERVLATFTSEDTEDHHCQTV
Put plainly: ATP-induced phase separation, confocal microscopy. The conditions noted are these: 10 uM protein, 25 °C, 30 min; indirect read-out of binding.

Test [2] concerns the target T2, RPP1-TIR–GFP (RPP1-TIR) (Arabidopsis thaliana, UniProt Q9ZSN5).
T2 construct: TIR domain residues 1-254, GFP-tagged, pET-MBP-mGFP vector, E. coli BL21(DE3); an untagged 60-254 form (GST cut, Sf21) was also made
T2 sequence (Q9ZSN5 1-254): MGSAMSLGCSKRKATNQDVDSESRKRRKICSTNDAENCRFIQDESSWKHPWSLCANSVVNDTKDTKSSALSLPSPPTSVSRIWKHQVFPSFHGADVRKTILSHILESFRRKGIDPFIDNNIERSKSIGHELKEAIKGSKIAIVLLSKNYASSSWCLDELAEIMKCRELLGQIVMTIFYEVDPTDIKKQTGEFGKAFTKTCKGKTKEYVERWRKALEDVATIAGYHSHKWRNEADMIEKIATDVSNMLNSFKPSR
Put plainly: ATP-induced phase separation, confocal microscopy and turbidity. The conditions noted are these: 1 mM ATP, 25 uM protein, 5% PEG 3,350, pH 8.0, 25 °C, 30 min; indirect read-out of binding.

For test [3], the target named is T3, TX14–GFP (Arabidopsis thaliana, UniProt F4ISS7).
T3 construct: gene At2g32140; residues 1-351, GFP-tagged, pET-MBP-mGFP vector, E. coli BL21(DE3)
T3 sequence (F4ISS7 1-351): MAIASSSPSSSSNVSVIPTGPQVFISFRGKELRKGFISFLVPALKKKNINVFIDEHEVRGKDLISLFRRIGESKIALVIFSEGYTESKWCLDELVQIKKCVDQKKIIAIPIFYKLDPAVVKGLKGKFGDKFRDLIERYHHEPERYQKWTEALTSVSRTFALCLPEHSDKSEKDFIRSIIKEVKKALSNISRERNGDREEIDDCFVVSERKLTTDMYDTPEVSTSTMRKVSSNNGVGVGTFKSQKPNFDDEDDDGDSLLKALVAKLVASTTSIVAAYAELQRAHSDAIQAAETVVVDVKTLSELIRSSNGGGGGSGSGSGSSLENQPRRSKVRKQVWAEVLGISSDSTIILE
The experiment in a line: ATP-induced phase separation, confocal microscopy. The conditions noted are these: 10 uM protein, 25 °C, 30 min; indirect read-out of binding.

Test [4] addresses T2, RPP1-TIR–GFP (RPP1-TIR). Put plainly: NADase assay, HPLC at […] nm; NAD+-induced phase separation by confocal microscopy. Conditions: 100 uM NAD+, 10 mM MgCl2, pH 8.0, 25 °C, 16 h; droplets: 1 mM NAD+, 25 uM protein, 5% PEG 3,350. The test is classed as biochemical.
For test [5], the target named is T3, TX14–GFP. The description is as above. Type of test: biochemical. The conditions noted are these: 100 uM NAD+, 10 mM MgCl2, pH 8.0, 25 °C, 16 h; condensates: 10 uM protein, NAD+ 0.2 mM.
In test [6] the target is T4, TX14–GFP (Arabidopsis thaliana, UniProt F4ISS7, S38D).
T4 construct: gene At2g32140; residues 1-351, GFP-tagged, pET-MBP-mGFP vector, E. coli BL21(DE3)
T4 sequence (F4ISS7 1-351 S38D): T3 sequence (F4ISS7 1-351) with S38D
The experiment in a line: NADase assay, HPLC at […] nm. Type of test: biochemical. Conditions: 100 uM NAD+, 10 mM MgCl2, pH 8.0, 25 °C, 16 h; 40 uM protein.

Test [7] deals with T5, TX14–GFP (Arabidopsis thaliana, UniProt F4ISS7, E57A/V58A/R59A/G60A/K61A/D62A).
T5 construct: gene At2g32140; residues 1-351, GFP-tagged, pET-MBP-mGFP vector, E. coli BL21(DE3)
T5 sequence (F4ISS7 1-351 E57A/V58A/R59A/G60A/K61A/D62A): T3 sequence (F4ISS7 1-351) with E57A, V58A, R59A, G60A, K61A, D62A
The experiment in a line: NADase assay, HPLC at […] nm. Type of test: biochemical. The conditions noted are these: 100 uM NAD+, 10 mM MgCl2, pH 8.0, 25 °C, 16 h.

Test [8] has as its target T1, RBA1–GFP. The experiment in a line: NADase assay, HPLC at […] nm; NAD+-induced phase separation by confocal microscopy. The test is classed as biochemical. Conditions: 100 uM NAD+, 10 mM MgCl2, pH 8.0, 25 °C, 16 h; condensates: 10 uM protein, NAD+ 0.2 mM.

`Nc1ncnc2c1ncn2[C@@H]1O[C@H](COP(=O)(O)OP(=O)(O)OP(=O)(O)O)[C@@H](O)[C@H]1O` [ATP]: the “ATP-induced phase separation, confocal microscopy” value in test [1] was “ATP and NAD^+/ATP induced phase separation of the TIR domain protein RBA1 and TX14”; in test [3] it was “ATP and NAD^+/ATP induced phase separation of the TIR domain protein RBA1 and TX14”. The “ATP-induced phase separation, confocal microscopy and turbidity” value in test [2] is listed as “ATP induced phase separation of the RPP1-TIR–GFP protein”.
For the compound `NC(=O)c1ccc[n+]([C@@H]2O[C@H](COP(=O)(O)OP(=O)(O)OC[C@H]3O[C@@H](n4cnc5c(N)ncnc54)[C@H](O)[C@@H]3O)[C@@H](O)[C@H]2O)c1` [NAD^+], the “NADase assay, HPLC at 260 nm; NAD+-induced phase separation by confocal microsco” value in test [4] is “wild-type RPP1-TIR, RBA1 and TX14 proteins nearly completely consumed the NAD^+ substrate”; in test [5] it was “wild-type RPP1-TIR, RBA1 and TX14 proteins nearly completely consumed the NAD^+ substrate”; in test [8], “wild-type RPP1-TIR, RBA1 and TX14 proteins nearly completely consumed the NAD^+ substrate”. Moreover, the “relative NADase activity” value was “the mutations of the AE interface impaired the NADase activity of these TIR domain proteins” in test [6] and “NAD^+-hydrolysing activity was significantly reduced in the corresponding BB-loop mutant proteins” in test [7].
